Data on one substance can be found in publication PMC9602792, “Preclinical evaluation of the epithelial sodium channel inhibitor AZD5634 and implications on human translation” (American Journal of Physiology - Lung Cellular and …, 2022).

pEC50: −log10 of the molar value.

In one series the test system is people with CF. Also noted: method as in PMID 35227647. Conditions: single-dose inhalation, NCT02950805; cited from earlier work.
Series [1] relates to HBECs grown under ALI conditions. Nature of the series: Gravimetric measurement of ASL (fluid retention) in HBEC ALI cultures. Conditions: gravimetric ALI assay; concentrations of 0.1 µM and above. In kind it is cell-based, human. As for the experimental part: After 3–4 wk, the HBEC ALI cultures were washed with PBS twice before the experiment was initiated. Thirty microliters of either vehicle or test compound (10 μM) was added apically and inserts were weighed after removal of basolateral fluid as a crude but simple way to measure retention of fluid on the apical side of the airway cultures. The weighing procedure was repeated at 4, 8, and 24 h.

Another series concerns the target T1, hERG (Homo sapiens, UniProt Q12809).
T1 construct: Millipore & Cerep (outsourced panels)
Put plainly: Secondary pharmacology binding panel (Millipore & Cerep). Conditions: at 10 µM. From the text: As pharmacological properties regarding selectivity are crucial for the development of ENaC inhibitors, we first assessed the properties of AZD5634 through a standard battery of assessments.

The subject of series [2] is sodium/hydrogen exchangers. Also noted: method as in PMID 33974881. The following applies: specificity unknown; cited from earlier work.
For another series, the target named is T2, rat ENaC (Rattus norvegicus, UniProt P37089+P37090+P37091).
T2 construct: from tissue; host or cells: kidney distal tubule of anesthetized female Wistar rats, in vivo
T2 sequence (P37089 1-698): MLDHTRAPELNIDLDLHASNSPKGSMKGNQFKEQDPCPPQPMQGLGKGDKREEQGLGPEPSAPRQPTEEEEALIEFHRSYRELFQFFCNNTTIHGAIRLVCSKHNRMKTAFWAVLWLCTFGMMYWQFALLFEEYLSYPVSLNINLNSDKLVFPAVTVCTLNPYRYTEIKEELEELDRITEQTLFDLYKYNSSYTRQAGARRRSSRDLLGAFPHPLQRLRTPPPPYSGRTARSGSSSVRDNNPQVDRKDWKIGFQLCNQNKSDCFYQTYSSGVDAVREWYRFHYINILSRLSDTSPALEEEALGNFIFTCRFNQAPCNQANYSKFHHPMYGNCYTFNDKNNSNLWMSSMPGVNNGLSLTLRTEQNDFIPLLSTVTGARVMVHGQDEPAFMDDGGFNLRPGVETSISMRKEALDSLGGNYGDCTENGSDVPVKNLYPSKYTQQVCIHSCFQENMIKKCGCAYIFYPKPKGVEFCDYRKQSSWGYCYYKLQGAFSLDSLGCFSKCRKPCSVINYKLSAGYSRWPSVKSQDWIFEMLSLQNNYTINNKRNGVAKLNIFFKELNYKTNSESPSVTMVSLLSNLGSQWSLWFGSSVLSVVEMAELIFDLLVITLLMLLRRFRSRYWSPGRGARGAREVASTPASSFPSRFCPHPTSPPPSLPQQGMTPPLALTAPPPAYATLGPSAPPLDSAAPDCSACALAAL
T2 sequence (P37090 1-638): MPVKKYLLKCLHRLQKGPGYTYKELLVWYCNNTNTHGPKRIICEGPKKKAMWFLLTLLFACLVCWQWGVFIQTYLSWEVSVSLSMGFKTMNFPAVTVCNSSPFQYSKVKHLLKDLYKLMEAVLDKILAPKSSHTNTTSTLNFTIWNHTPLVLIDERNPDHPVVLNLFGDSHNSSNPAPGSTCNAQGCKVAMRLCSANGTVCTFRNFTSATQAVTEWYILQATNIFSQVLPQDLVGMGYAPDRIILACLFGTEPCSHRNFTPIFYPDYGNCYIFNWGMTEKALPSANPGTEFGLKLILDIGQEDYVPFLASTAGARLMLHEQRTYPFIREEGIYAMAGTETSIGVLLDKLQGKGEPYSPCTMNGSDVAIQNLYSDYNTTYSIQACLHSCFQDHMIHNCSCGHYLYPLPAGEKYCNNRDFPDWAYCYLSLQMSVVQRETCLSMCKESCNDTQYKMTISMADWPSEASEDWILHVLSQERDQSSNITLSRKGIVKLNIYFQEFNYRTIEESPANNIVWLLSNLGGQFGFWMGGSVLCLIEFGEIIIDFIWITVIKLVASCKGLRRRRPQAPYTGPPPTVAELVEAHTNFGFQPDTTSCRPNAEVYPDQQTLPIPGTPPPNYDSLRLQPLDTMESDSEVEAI
T2 sequence (P37091 1-650): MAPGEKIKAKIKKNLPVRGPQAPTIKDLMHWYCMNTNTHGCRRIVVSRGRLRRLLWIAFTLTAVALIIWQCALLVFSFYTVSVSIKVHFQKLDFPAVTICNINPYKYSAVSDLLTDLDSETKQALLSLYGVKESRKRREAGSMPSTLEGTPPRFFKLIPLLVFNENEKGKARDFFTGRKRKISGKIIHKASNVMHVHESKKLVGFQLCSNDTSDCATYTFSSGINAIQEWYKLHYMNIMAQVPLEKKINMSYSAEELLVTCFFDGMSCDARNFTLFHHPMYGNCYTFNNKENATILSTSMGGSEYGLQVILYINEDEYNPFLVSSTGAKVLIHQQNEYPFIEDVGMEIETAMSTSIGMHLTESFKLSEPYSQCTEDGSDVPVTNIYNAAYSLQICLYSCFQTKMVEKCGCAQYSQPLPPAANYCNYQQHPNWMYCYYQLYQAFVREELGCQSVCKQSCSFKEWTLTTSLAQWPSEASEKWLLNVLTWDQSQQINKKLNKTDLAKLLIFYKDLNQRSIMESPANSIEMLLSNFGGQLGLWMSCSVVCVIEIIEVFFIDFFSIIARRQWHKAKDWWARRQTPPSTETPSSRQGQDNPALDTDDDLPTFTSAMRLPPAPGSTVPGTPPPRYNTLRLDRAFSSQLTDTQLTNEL
Nature of the series: Rat potency from renal electrolyte excretion during i.v. infusion. The following applies: read-out: potency for rat ENaC (EC50, inhibiting 50% of the potassium excretion), normal rats, free concentrations, estimated. In kind it is in vivo. As for the experimental part: The potency of AZD5634 was also assessed in vivo in rats. Female Wistar rats were anesthetized by means of spontaneously breathing isoflurane (induction concentration of 5% followed by 2%). A catheter was positioned in the carotid artery for blood sampling and mean arterial blood pressure and heart rate were measured. […] The urinary bladder was catheterized for urine collection. The rats were left to stabilize for at least 30 min after surgery during constant basal infusions before any test compound or vehicle infusion was initiated. Urine was collected over 20-min periods; two at baseline (i.e., preexposure), followed by three 30 min exposures of increasing doses of test compound or vehicle, where urine was collected over the last 20 min for each dose. Additional urine was collected during the washout period (0–20, 20–40, and 40–60 min after cessation of the infusion protocol). Blood samples were collected 5 min before the end of each urine collection period for electrolyte evaluation (iSTAT analyzer, Abbott Laboratories Inc) and plasma concentration of drug (LC-MSMS). Urine production, electrolytes (ABL700, Radiometer Medical ApS, Brønshøj, Denmark, for urine), as well as concentration of test compound (LC-MSMS) were evaluated.
Rat electrolyte data were analyzed by means of repeated-measures ANCOVA (SAS v.9).

T1 sequence (Q12809 whole entry): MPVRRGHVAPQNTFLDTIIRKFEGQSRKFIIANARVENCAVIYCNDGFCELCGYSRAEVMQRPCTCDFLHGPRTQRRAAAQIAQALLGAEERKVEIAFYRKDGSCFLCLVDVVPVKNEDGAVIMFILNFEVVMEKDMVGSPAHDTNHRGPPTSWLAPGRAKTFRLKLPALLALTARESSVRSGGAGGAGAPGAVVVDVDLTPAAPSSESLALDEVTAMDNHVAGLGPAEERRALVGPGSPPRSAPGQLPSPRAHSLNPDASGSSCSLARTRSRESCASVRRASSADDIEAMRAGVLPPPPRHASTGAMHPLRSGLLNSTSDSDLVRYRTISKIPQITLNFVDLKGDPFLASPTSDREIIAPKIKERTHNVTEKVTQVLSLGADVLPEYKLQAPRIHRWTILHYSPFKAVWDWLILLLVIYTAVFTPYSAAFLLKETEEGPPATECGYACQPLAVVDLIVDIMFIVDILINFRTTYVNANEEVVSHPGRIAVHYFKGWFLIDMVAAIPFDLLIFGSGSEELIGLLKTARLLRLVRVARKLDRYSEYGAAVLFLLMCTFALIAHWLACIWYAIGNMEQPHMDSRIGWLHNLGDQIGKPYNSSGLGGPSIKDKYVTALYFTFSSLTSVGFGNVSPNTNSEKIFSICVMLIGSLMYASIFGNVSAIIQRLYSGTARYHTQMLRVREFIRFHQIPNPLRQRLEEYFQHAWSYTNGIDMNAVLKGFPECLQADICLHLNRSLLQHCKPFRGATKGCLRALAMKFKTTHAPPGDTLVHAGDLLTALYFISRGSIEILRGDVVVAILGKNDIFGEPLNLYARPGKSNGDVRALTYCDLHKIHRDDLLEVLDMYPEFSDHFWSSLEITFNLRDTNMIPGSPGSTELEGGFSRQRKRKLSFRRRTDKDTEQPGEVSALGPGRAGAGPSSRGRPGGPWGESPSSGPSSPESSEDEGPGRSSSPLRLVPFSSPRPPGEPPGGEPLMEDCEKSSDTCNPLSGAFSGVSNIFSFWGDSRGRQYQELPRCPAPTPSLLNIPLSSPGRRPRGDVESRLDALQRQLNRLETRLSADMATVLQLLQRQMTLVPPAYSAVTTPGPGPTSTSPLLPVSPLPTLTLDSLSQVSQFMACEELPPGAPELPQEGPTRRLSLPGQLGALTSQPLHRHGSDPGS

In the case of AZD5634, in the series with people with CF, the “effect on MCC” value is on record as “did not demonstrate augmented MCC”. In addition, in series [1], the “duration of (fluid-retaining) effect on ASL” value is recorded as above 24 h. At hERG, this substance yielded a hERG inhibition of 13%. For the same substance, in series [2], the “effect on sodium/hydrogen exchangers” value is on record as “blocks sodium/hydrogen exchangers”. In addition, the pEC50 at rat ENaC is 8.07.
